Reference: publication PMC10931479, “Exploration of hypoglycemic peptides from porcine collagen based on network pharmacology and molecular docking” (PLOS ONE, 2024)
“Also recorded” adds a separate entry of the source.

Columns and labels:
[1] = peptides from bovine skin collagen; cited from earlier work
Text: (§1) At present, dietary proteins isolated from black beans, fermented soybean, balsam pear, and other sources have been identified as having anti-diabetic peptide properties. In vitro experiments have confirmed the hypoglycemic effects of many of these peptides, with some outperforming clinical drugs. […] He L, et al. isolated five peptides (GPVGPPG, GPPGPT, APGGAP, FGPGP, and GPVG) from bovine skin colla ...

[2] = system: α-glucosidase; conditions: peptides from silkworm pupae; cited from earlier work
Text: as §1

[3] = system: α-glucosidase; test: α-Glucosidase activity inhibition test (pNPG); format: biochemical; conditions: 0.1 to 0.7 mg/mL; in vitro; comparison with acarbose where stated
Protocol: The samples were prepared at different concentrations (1-7 mg/mL), and the following compounds were prepared: α-glucosidase (0.1 Ua), PBS (pH 6.8, 0.05 mol/L), PNPG (2.5 mmol/L), and Na2CO3 (1 mol/L). The control, sample blank, and sample groups were incubated at their appropriate temperature and time, and the absorbance at 405 nm was measured using a microplate reader. The inhibitory activity was calculated using Eq (2). The inhibition rate of α-glucosidase was solved according to the concentration of different mass samples. The IC50 values were calculated based on the fitting curves. […] All experiments were conducted in triplicate and the data are expressed as the mean ± standard deviation (SD). Statistical analysis was performed using SPSS 27.0 software with Duncan's multiple and one-way ANOVA tests to determine the differences among the mean values. The mapping was done using prism and bioinformatics tools (http://www.bioinformatics.com.cn/).

Row | Substance | Anti-diabetic properties [1] | Suppression of α-glucosidase activity [2] | other results
1 | APGGAP [peptide from bovine skin collagen] | exhibited anti-diabetic properties | – | –
2 | FGPGP [peptide from bovine skin collagen] | exhibited anti-diabetic properties | – | –
3 | GPPGPT [peptide from bovine skin collagen] | exhibited anti-diabetic properties | – | –
4 | GPVG [peptide from bovine skin collagen] | exhibited anti-diabetic properties | – | –
5 | GPVGPPG [peptide from bovine skin collagen] | exhibited anti-diabetic properties | – | –
6 | NSPR [peptide from silkworm pupae] | – | can suppress α-glucosidase activity | –
7 | NWYR [tetrapeptide from in silico trypsin hydrolysis of porcine collagen BAX02569.1, synthesized by solid-phase synthesis] | – | – | Inhibition of α-glucosidase in words [3]: significantly inhibited α-glucosidase activity in a concentration-dependent manner; also recorded: no significant difference between them and acarbose; also recorded: the inhibitory effect of NWYR was stronger
8 | QPGR [peptide from silkworm pupae] | – | can suppress α-glucosidase activity | –
9 | QPPT [peptide from silkworm pupae] | – | can suppress α-glucosidase activity | –
10 | SQSPA [peptide from silkworm pupae] | – | can suppress α-glucosidase activity | –
